Test results as given in PubChem BioAssay (NCI).
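Growth conditions: 96-well plates. Treatment: test compound, 48 hours, 5 concentrations. Analysis: linear interpolation between bracketing concentrations; unreached endpoints set to highest concentration. GI50: concentration for 50% inhibition of growth. Definition used: TGI = concentration required for complete inhibition of growth.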 Where a SMILES comes first, the peptide text is derived from it.

Experiments:
Assay in all cases: growth of human tumour cells (NCI), 48 h
[1] = test system: NCI-H522 lung
[2] = test system: MOLT-4 leukemia
[3] = test system: HOP-62 NSCLC
[4] = test system: MCF7 breast
[5] = test system: UACC-62 melanoma
[6] = test system: SK-MEL-5 melanoma
[7] = test system: UO-31 renal
[8] = test system: M14 melanoma
[9] = test system: NCI-H23 lung
[10] = test system: OVCAR-5 ovarian

| Structure (SMILES) | GI50 [1] [µM] | TGI [1] [µM] | GI50 [2] [µM] | TGI [2] [µM] | GI50 [3] [µM] | TGI [3] [µM] | GI50 [4] [µM] | TGI [4] [µM] | GI50 [5] [µM] | TGI [5] [µM] | GI50 [6] [µM] | TGI [6] [µM] | GI50 [7] [µM] | TGI [7] [µM] | GI50 [8] [µM] | TGI [8] [µM] | GI50 [9] [µM] | TGI [9] [µM] | GI50 [10] [µM] | TGI [10] [µM] |
| --- | --- | --- | --- | --- | --- | --- | --- | --- | --- | --- | --- | --- | --- | --- | --- | --- | --- | --- | --- | --- |
| S=c1nc2[nH]ncc2c(N/N=C/c2ccccc2)[nH]1 | > 100 | > 100 | > 100 | > 100 | > 100 | > 100 | 32 | 47 | 72.7 | > 100 | 41.3 | > 100 | > 100 | > 100 | > 100 | > 100 | > 100 | > 100 | > 100 | > 100 |
| C=C1C(=O)O[C@H]2[C@H]1CC/C(Cn1cc(Cn3ccc4ccccc43)nn1)=C\CC[C@@]1(C)O[C@@H]21 | 1.27 | 2.69 | 1.48 | 5.11 | 6.96 | 20.1 | 1.3 | 3.18 | 1.44 | 2.89 | 1.97 | 4.38 | 1.26 | 2.53 | 1.25 | 2.79 | 2.5 | 6.49 | 1.59 | 3.21 |
| Cc1cc(C)c(O)c(Cc2cccc(Cc3cc(C)cc(C)c3O)c2O)c1 |  | > 100 |  | > 100 |  | > 100 |  | > 100 |  | > 100 |  | > 100 |  | > 100 |  | > 100 |  | > 100 |  | > 100 |
| Cn1ncc2c(/N=C/c3cccs3)[nH]c(=S)nc21 | > 68.2 | > 100 | 44.1 | > 100 | 52.9 | > 93.8 | 27.4 | > 80.3 | 19.6 | 52.4 | 17.9 | 39.9 | 58.6 | > 100 | 45.7 | > 100 | 33.7 | > 76.1 | 54 | > 100 |
| O=C(Nc1n[nH]c2nc(-c3ccco3)ccc12)C1CC1 | > 25 | > 25 | > 25 | > 25 | > 25 | > 25 | > 25 | > 25 | > 25 | > 25 | > 25 | > 25 | > 25 | > 25 | > 25 | > 25 | > 25 | > 25 | > 25 | > 25 |
| O=C(Nc1ccccc1)Nc1cccc(-n2cc(-c3ccncc3)c(-c3ccc(O)c(Cl)c3)n2)c1 | 2.26 | 6.73 | 2.92 | 9.03 | 4.93 | 53.6 | 2.75 | 17.8 | 3.73 | 15.5 | 1.78 | 3.35 | 3.43 | 31.8 | 3.1 | 9.47 | 3.82 | 21.4 | 5.39 | 31.5 |
| CC(C)CC(NC(=O)C(CC(C)C)NC(=O)C(Cc1cnc[nH]1)NC(=O)C(C)NC(=O)C(NC(=O)C(C)NC(=O)C(Cc1c[nH]c2ccccc12)NC(=O)C(CCC(=O)O)NC(=O)C(N)Cc1ccccc1)C(C)C)C(N)=O (stereo not drawn) (H-FEWAVAHLL-NH2; configuration not given here) |  | > 12.5 | > 100 | > 100 | > 100 | > 100 |  | > 12.5 | > 100 | > 100 |  | > 12.5 | 70.9 | > 100 | > 100 | > 100 | > 100 | > 100 |  | > 12.5 |
| COc1ccc(-c2cc(=O)c3c(OC)c(OC)c(OC)c(OC)c3o2)cc1OC |  | > 100 |  | 70.3 |  | > 100 |  | > 100 |  | 72.4 |  | > 100 |  | > 100 |  | > 100 |  | > 100 |  | > 100 |
| N#CC(=S)Nc1ccc(Cl)c(Cl)c1 | 3.73 | 24.2 |  | 43.5 |  | 99.5 |  | > 73.4 |  | 34.1 |  | > 51.3 | 7.63 | 51.6 |  | > 60.6 |  | > 59.2 |  | 55.9 |
